Assay [1] deals with T1, Recombinant STAT3 protein (STAT3(G127-I722)) (Homo sapiens, UniProt P40763).
T1 construct: Recombinant STAT3 protein (STAT3(G127-I722))
Nature of the assay: STAT3 Fluorescence Polarization (FP) Assay. Type of assay: binding. The following applies: STAT3(G127-I722) 25 nM, probe 5-FAM-GpYLPQTV-NH2 2 nM, 45-minute incubation. The method in brief: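 STAT3(G127-I722), 25 nM, was mixed with 2 nM 5-FAM-GpYLPQTV-NH2 probe in HEPES pH 7.4 buffer with 1% DMSO and serially diluted compound. FP (mP) was read after 45 min at room temperature. IC50 came from nonlinear regression.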
For orientation: Polarisation of emitted light reports the rotation of a fluorescent probe.

The target in assay [2] is T2, Recombinant STAT6 protein (STAT6(W123-T658)) (Homo sapiens, UniProt P42226).
T2 construct: Recombinant STAT6 protein (STAT6(W123-T658))
T2 sequence (P42226 123-658): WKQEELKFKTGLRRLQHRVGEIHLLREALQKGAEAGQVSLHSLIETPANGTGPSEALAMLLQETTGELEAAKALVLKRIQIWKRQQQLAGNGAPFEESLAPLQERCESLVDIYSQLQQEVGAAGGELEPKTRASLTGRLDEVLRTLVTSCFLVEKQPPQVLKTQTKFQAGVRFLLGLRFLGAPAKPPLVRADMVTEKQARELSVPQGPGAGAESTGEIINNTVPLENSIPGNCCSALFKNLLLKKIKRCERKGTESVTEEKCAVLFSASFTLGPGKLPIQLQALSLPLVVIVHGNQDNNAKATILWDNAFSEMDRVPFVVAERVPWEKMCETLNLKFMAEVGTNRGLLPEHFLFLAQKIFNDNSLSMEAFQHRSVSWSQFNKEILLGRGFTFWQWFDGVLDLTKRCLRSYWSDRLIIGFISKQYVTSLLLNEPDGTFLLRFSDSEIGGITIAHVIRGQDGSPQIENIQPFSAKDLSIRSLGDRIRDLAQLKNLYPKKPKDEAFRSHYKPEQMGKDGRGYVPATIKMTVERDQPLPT
The assay is described as follows: STAT6 Fluorescence Polarization (FP) Assay. Type of assay: binding. The following applies: STAT6(W123-T658) 250 nM, probe 5-FAM-ApYKPFQDLI-NH2 2 nM, 45-minute incubation. In outline:
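Displacement of a fluorescent phosphotyrosine peptide (5-FAM-ApYKPFQDLI-NH2, 2 nM) from STAT6(W123-T658) (250 nM), 1% DMSO, pH 7.4 HEPES buffer. After 45 min at room temperature, polarization (mP) was plotted versus log compound concentration and fitted by nonlinear regression to give IC50.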

For orientation: IC50 means the point on the concentration scale where inhibition reaches its midpoint.

T1 sequence (P40763 127-722): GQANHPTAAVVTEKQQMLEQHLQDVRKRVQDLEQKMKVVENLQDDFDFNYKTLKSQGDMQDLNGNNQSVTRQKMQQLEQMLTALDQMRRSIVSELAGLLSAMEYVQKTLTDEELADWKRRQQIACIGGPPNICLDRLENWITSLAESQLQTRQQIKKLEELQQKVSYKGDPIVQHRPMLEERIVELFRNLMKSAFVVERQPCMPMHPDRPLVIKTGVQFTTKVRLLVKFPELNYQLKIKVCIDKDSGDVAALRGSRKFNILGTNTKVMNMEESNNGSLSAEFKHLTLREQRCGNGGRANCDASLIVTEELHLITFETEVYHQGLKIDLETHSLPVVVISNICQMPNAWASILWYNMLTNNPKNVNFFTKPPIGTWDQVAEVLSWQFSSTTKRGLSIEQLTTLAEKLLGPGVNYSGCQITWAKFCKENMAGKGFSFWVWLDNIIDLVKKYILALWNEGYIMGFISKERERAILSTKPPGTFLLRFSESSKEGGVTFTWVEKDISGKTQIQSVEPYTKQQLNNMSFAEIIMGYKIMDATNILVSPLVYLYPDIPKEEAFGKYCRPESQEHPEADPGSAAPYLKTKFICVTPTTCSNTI

In the case of `CC(=O)N1CC[C@H]2CC[C@@H](C(=O)N3CCN(C4CC4)C(C#N)C3)N2C(=O)[C@@H](NC(=O)c2cc3cc(C(F)(F)P(=O)(O)O)ccc3s2)C1` (stereo partly drawn) [Compound 63, ((2-(((5S,8S,10aR)-3-acetyl-8-(3-cyano-4-cyclopropylpiperazine-1-carbonyl)-6-oxodecahydropyrrolo[1,2-a][1,5]diazocin-5-yl)carbamoyl)benzo[b]thiophen-5-yl)difluoromethyl)phosphonic acid], the IC50 in assay [1] was in the range of 1 to 10 µM; in assay [2], 0.3 to 3 µM.
For `CC(=O)N1CC[C@H]2CC[C@@H](C(=O)N3CC(C#N)C4(CCC4)C3)N2C(=O)[C@@H](NC(=O)c2cc3cc(C(F)(F)P(=O)(O)O)ccc3s2)C1` (stereo partly drawn) [Compound 64, ((2-(((5S,8S,10aR)-3-acetyl-8-(8-cyano-6-azaspiro[3.4]octane-6-carbonyl)-6-oxodecahydropyrrolo[1,2-a][1,5]diazocin-5-yl)carbamoyl)benzo[b]thiophen-5-yl)difluoromethyl)phosphonic acid], in that order: 1 to 10 µM and 0.3 to 3 µM.
Taken in the same sequence, the figures for `CC(=O)N1CC[C@H]2CC[C@@H](C(=O)Nc3cc(C)c4[nH]ncc4c3)N2C(=O)[C@@H](NC(=O)c2cc3cc(C(F)(F)P(=O)(O)O)ccc3s2)C1` [Compound 67, ((2-(((5S,8S,10aR)-3-acetyl-8-((7-methyl-1H-indazol-5-yl)carbamoyl)-6-oxodecahydropyrrolo[1,2-a][1,5]diazocin-5-yl)carbamoyl)benzo[b]thiophen-5-yl)difluoromethyl)phosphonic acid] were 1 to 10 µM and 0.3 to 3 µM.
With `CC(=O)N1CC[C@H]2CC[C@@H](C(=O)Nc3ccc4onc(C)c4c3)N2C(=O)[C@@H](NC(=O)c2cc3cc(C(F)(F)P(=O)(O)O)ccc3s2)C1` [Compound 68, ((2-(((5S,8S,10aR)-3-acetyl-8-((3-methylbenzo[d]isoxazol-5-yl)carbamoyl)-6-oxodecahydropyrrolo[1,2-a][1,5]diazocin-5-yl)carbamoyl)benzo[b]thiophen-5-yl)difluoromethyl)phosphonic acid], the IC50 lay within 0.1 to 1 µM in assay [1] and 0.3 to 3 µM in assay [2].
Taken in the same sequence, the figures for `CC(=O)N1CC[C@H]2CC[C@@H](C(=O)Nc3ccc4nccnc4c3)N2C(=O)[C@@H](NC(=O)c2cc3cc(C(F)(F)P(=O)(O)O)ccc3s2)C1` [Compound 69, ((2-(((5S,8S,10aR)-3-aceytl-6-oxo-8-(quinoxalin-6-ylcarbamoyl)decahydropyrrolo[1,2-a][1,5]diazocin-5-yl)carbamoyl)benzo[b]thiophen-5-yl)difluoromethyl)phosphonic acid] were 1 to 10 µM and 0.3 to 3 µM.
Taken in the same sequence, the figures for `CC(=O)N1CC[C@H]2CC[C@@H](C(=O)Nc3ccc(S(C)(=O)=O)cc3)N2C(=O)[C@@H](NC(=O)c2cc3cc(C(F)(F)P(=O)(O)O)ccc3s2)C1` [Compound 70, ((2-(((5S,8S,10aR)-3-acetyl-8-((4-(methylsulfonyl)phenyl)carbamoyl)-6-oxodecahydropyrrolo[1,2-a][1,5]diazocin-5-yl)carbamoyl)benzo[b]thiophen-5-yl)difluoromethyl)phosphonic acid] were 1 to 10 µM and 0.3 to 3 µM.
Taken in the same sequence, the figures for `CC(=O)N1CC[C@H]2CC[C@@H](C(=O)Nc3ccc(=O)n(C)c3)N2C(=O)[C@@H](NC(=O)c2cc3cc(C(F)(F)P(=O)(O)O)ccc3s2)C1` [Compound 71, ((2-(((5S,8S,10aR)-3-acetyl-8-((1-methyl-6-oxo-1,6-dihydropyridin-3-yl)carbamoyl)-6-oxodecahydropyrrolo[1,2-a][1,5]diazocin-5-yl)carbamoyl)benzo[b]thiophen-5-yl)difluoromethyl)phosphonic acid] were 1 to 10 µM and 0.3 to 3 µM.
As for `CC(=O)N1CC[C@H]2CC[C@@H](C(=O)Nc3ccc4nccn4c3)N2C(=O)[C@@H](NC(=O)c2cc3cc(C(F)(F)P(=O)(O)O)ccc3s2)C1` [Compound 72, ((2-(((5S,8S,10aR)-3-acetyl-8-(imidazo[1,2-a]pyridin-6-ylcarbamoyl)-6-oxodecahydropyrrolo[1,2-a][1,5]diazocin-5-yl)carbamoyl)benzo[b]thiophen-5-yl)difluoromethyl)phosphonic acid], the values for the IC50 in assay [1] and in assay [2] were 1 to 10 µM and 0.3 to 3 µM, respectively.
Taken in the same sequence, the figures for `CC(=O)N1CC[C@H]2CC[C@@H](C(=O)Nc3ccc(OCCCN(C)C)cc3)N2C(=O)[C@@H](NC(=O)c2cc3cc(C(F)(F)P(=O)(O)O)ccc3s2)C1` [Compound 73, ((2-(((5S,8S,10aR)-3-acetyl-8-((4-(3-(dimethylamino)propoxy)phenyl)carbamoyl)-6-oxodecahydropyrrolo[1,2-a][1,5]diazocin-5-yl)carbamoyl)benzo[b]thiophen-5-yl)difluoromethyl)phosphonic acid] were 1 to 10 µM and 3 to 30 µM.
Turning to `CC(=O)N1CC[C@H]2CC[C@@H](C(=O)Nc3ccc(OCCN(C)C)cc3)N2C(=O)[C@@H](NC(=O)c2cc3cc(C(F)(F)P(=O)(O)O)ccc3s2)C1` [Compound 75, ((2-(((5S,8S,10aR)-3-acetyl-8-((4-(2-(dimethylamino)ethoxy)phenyl)carbamoyl)-6-oxodecahydropyrrolo[1,2-a][1,5]diazocin-5-yl)carbamoyl)benzo[b]thiophen-5-yl)difluoromethyl)phosphonic acid], the IC50 lay within 1 to 10 µM in assay [1] and 3 to 30 µM in assay [2].
For `CC(=O)N1CC[C@H]2CC[C@@H](C(=O)N3CCC4(C3)C(=O)Nc3ccccc34)N2C(=O)[C@@H](NC(=O)c2cc3cc(C(F)(F)P(=O)(O)O)ccc3s2)C1` (stereo partly drawn) [Compound 76, ((2-(((5S,8S,10aR)-3-acetyl-6-oxo-8-(2-oxospiro[indoline-3,3′-pyrrolidine]-1′-carbonyl)decahydropyrrolo[1,2-a][1,5]diazocin-5-yl)carbamoyl)benzo[b]thiophen-5-yl)difluoromethyl)phosphonic acid], in that order: 0.1 to 1 µM and 0.3 to 3 µM.
Taken in the same sequence, the figures for `CC(=O)N1CC[C@H]2CC[C@@H](C(=O)N3CC(C(=O)N4CCOCC4)C3)N2C(=O)[C@@H](NC(=O)c2cc3cc(C(F)(F)P(=O)(O)O)ccc3s2)C1` [Compound 77, ((2-(((5S,8S,10aR)-3-acetyl-8-(3-(morpholine-4-carbonyl)azetidine-1-carbonyl)-6-oxodecahydropyrrolo[1,2-a][1,5]diazocin-5-yl)carbamoyl)benzo[b]thiophen-5-yl)difluoromethyl)phosphonic acid] were 0.1 to 1 µM and 3 to 30 µM.
With `CC(=O)N1CC[C@H]2CC[C@@H](C(=O)N3CCC(N4CCCS4(=O)=O)C3)N2C(=O)[C@@H](NC(=O)c2cc3cc(C(F)(F)P(=O)(O)O)ccc3s2)C1` (stereo partly drawn) [Compound 78, ((2-(((5S,8S,10aR)-3-acetyl-8-(3-(1,1-dioxidoisothiazolidin-2-yl)pyrrolidine-1-carbonyl)-6-oxodecahydropyrrolo[1,2-a][1,5]diazocin-5-yl)carbamoyl)benzo[b]thiophen-5-yl)difluoromethyl)phosphonic acid], the IC50 in assay [1] lay within 0.1 to 1 µM; in assay [2], 0.3 to 3 µM.

These data come from patent publication US20250179103A1, “6-OXODECAHYDROPYRROLO[1,2-A][1,5]DIAZOCINE AND 6-OXODECAHYDRO-4H-PYRROLO[2,1-D][1,5]THIAZOCINE DERIVATIVES AS STAT3 AND STAT6 MODULATORS FOR THE TREATMENT OF CANCER AND INFLAMMATORY CONDITIONS” (Recludix Pharma, Inc., priority 2022, published 2025).
